Measured values from ChEMBL document CHEMBL1914306, “The design, synthesis and biological evaluation of novel URB602 analogues as potential monoacylglycerol lipase inhibitors” (Bioorg Med Chem Lett, 2011).

How the values were obtained:
[1] = target: T1, Monoglyceride lipase (Homo sapiens) (UniProt Q99685); assay: Inhibition of human recombinant MAGL assessed as remaining activity at 1 uM after 10 mins by spectrophotometry relative to control
T1 sequence (whole entry): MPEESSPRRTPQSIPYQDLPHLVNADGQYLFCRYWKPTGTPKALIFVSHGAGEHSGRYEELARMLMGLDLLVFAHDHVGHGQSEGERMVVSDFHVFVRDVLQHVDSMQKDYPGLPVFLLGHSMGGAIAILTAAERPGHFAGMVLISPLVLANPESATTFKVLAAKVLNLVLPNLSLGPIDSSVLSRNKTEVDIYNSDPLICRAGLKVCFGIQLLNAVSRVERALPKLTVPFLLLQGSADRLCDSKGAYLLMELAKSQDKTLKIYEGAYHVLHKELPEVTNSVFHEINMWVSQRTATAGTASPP

[2] = target: T1, Monoglyceride lipase (Homo sapiens); assay: Inhibition of human recombinant MAGL assessed as remaining activity at 10 uM after 10 mins by spectrophotometry relative to control
[3] = target: T1, Monoglyceride lipase (Homo sapiens); assay: Inhibition of human recombinant MAGL assessed as remaining activity at 100 uM after 10 mins by spectrophotometry relative to control
[4] = target: T1, Monoglyceride lipase (Homo sapiens); assay: Inhibition of MAGL assessed as remaining activity using 4-nitrophenylacetate as substrate at 10 uM relative to control

SMILES	Activity [1]	Activity [2]	Activity [3]	Activity [4]
O=C(Nc1cccc(-c2ccccc2)c1)NC1CCCCCC1	96%	80%	55%	
O=C(Nc1cccc(-c2ccccc2)c1)OC1CCCC1	93%	71%		
O=C(Nc1cccc(-c2ccccc2)c1)OC1CCC1	97%	86%	85%	
S=C(Nc1cccc(-c2ccccc2)c1)OC1CCCCCC1	79%	83%		
O=C(Nc1cccc(-c2ccc(O)cc2)c1)OC1CCCCC1	83%	46%	26%	
CC(C)[C@@H]1CC[C@@H](C)C[C@H]1OC(=O)Nc1cccc(-c2ccccc2)c1	106%	101%		
S=C(Nc1cccc(-c2ccccc2)c1)NC1CCCCC1	93%	76%		
O=C(Nc1cccc(-c2ccccc2)c1)NC1CCCC1	80%	73%		
O=C(Nc1cccc(-c2ccccc2)c1)OC1CCCCCCC1	101%	92%		
O=C(Nc1cccc(-c2ccccc2)c1)NC1CCCCC1	98%	79%	78%	

Further lines, results first:

Activity [1]	Activity [2]	Activity [3]	Activity [4]	SMILES
93%	71%	73%	84%	O=C(Nc1cccc(-c2ccccc2)c1)OC1CCCCC1
94%	71%			O=C(Nc1cccc(-c2ccccc2)c1)OC1CCCCCC1
95%	79%			O=C(Nc1cccc(-c2ccccc2)c1)O[C@H]1C[C@H]2CC[C@@H]1C2
85%	81%	81%		O=C(Nc1cccc(-c2ccc(Cl)cc2)c1)OC1CCCCC1
73%	83%			S=C(Nc1cccc(-c2ccccc2)c1)OC1CCCCC1
